# From US20080155704A1, “Methods and Compositions for Determining in vivo Activity of BiP” (King's College London, priority 2006, published 2008)
# Experiments:
# Type in all cases: cell-based, human
# [1] = test system: autologous responder T cells; experiment: Regulatory T cell activity after co-culture with DC(BiP): responder T cell proliferation to anti-CD3
# Method: FIG. 12: Co-culture with BiP-treated dendritic cells (DC) leads T cells to have regulatory function. After 4d pre-incubation with either autologous or allogeneic DC, or DC(BiP), T cells were washed and set up in autologous cultures with irradiated peripheral blood mononuclear cells (PBMC) and responder T cells (1:1:1 ratio) (105 cells each/well) in the presence or absence of anti-CD3 antibody (1/2000 dilution). […] (B) a representative experiment showing an autologous experiment using Δ counts per minute (Δcpm) (stimulated-unstimulated cpm) following stimulation with anti-CD3 antibody to irradiated PBMC (irMC) or responder T cells (rT) alone and cultures with irMC+rT+T cells prestimulated (pT) by autologous DC populations as indicated; (C) mean ±standard deviation of unstimulated and stimulated cultures from a representative experiment where autologous irMC+rT+pT, previously cocultured with allogeneic DC populations as indicated, were present in ratio 1:1:1.
# Purified T cells (>95% T cells) (2.10^6/well) either autologous or allogeneic were cultured in the absence or presence of irradiated DC populations in 24-well flat-bottomed plates at a IDC: 10 T cell ratio for 4 days. […]
# IL-8 = IL-8 in supernatants of PBMC from rheumatoid arthritis patients (MSD multicytokine array); conditions: PBMC of RA patients on methotrexate, BiP 20 μg/ml, 96 h, 16 paired samples, p=0.0001
# Method: Peripheral blood mononuclear cells (PBMC) were separated from heparinised blood taken from patients with rheumatoid arthritis being treated with methotrexate. PBMC were either left unstimulated or stimulated with BiP (20 μg/ml). Supernatants were taken at 96 h, aliquoted and stored at −80° C. until required.
# Supernatants from unstimulated or BiP stimulated cultures were analysed in a multicytokine array (MSD). The results from 16 paired samples are shown as median and 95 percent confidence limits.
# [2] = test system: indoleamine 2,3-dioxygenase (IDO); experiment: Intracellular indoleamine 2,3-dioxygenase in mature dendritic cells (flow cytometry); conditions: mDC(BiP)
# Method: Purified monocytes (>85% monocytes)(1.5.10^6/flask)(Corning Costar, High Wycombe, UK) were incubated in 5 ml of tissue culture medium (TCM)(RPMI 1640 medium (Sigma, Poole, UK) supplemented with 10% heat-inactivated foetal calf serum (FCS)(Life Technologies, Paisley, UK). iDC were generated using granulocyte macrophage—colony stimulating factor (GM-CSF) (1000 U/ml)(Novartis Research Institute, Vienna, Austria) and IL-4 (500 U/ml) (R&D Systems, Oxford, UK). Monocytes were cultured for 3 or 7 days with cytokines, either alone or in the presence of rhuBiP (20 μg/ml). Mature DC were generated by addition of 500 ng/ml lipopolysaccharide (LPS) for the final 2 days of culture.
# Intracellular staining was carried out with fixed cells incubated with 1% paraformaldehyde in IF buffer for 5 minutes at room temperature. The cells were washed twice with IF buffer containing 0.3% saponin for permeabilization. […] Antibodies were added at the pre-determined optimal concentration for 20 mins and then the cells were washed twice with IF buffer and analysed. […] Cells were analysed on a FACScan cytometer using Cellquest software (Becton Dickinson, Oxford, UK). […]
# Immunofluorescent staining was performed, as described previously (39), on DC harvested at day 7, T cells after 4 days co-culture with DC. […] Cells were analysed on a FACScan/FACScalibur cytometers using Cellquest software (BD, Oxford, UK).
substance,measurement,setting,value
BiP: 78 kD endoplasmic reticulum chaperone protein as disclosed in WO 00/21995; recombinant human protein,% inhibition of responder T cell proliferation to anti-CD3 antibody,"[1]; T cells from 4d co-culture with allogeneic DC(BiP), n=3",28.7±13.3 % inhibition
same,% inhibition of responder T cell proliferation to anti-CD3 antibody,"[1]; T cells from 4d co-culture with autologous DC(BiP), n=5",63.8±13.7 % inhibition
same,IL-8 production,IL-8,significantly less IL-8
same,cells containing intracellular IDO,"[2]; mean ±standard deviation, n=9 (Example 10)",14.1±7.1%
same,cells containing intracellular IDO,[2]; n=4 (Example 1),17.6±8.6%
